Measurements published in patent US10226448B2, “3-(1H-pyrrolo[3,2-C]pyridin-2-yl)-1H-pyrazolo[3,4-B]pyridines and therapeutic uses thereof” (Samumed, LLC, priority 2015, dated 2019).

Tests used:
Assay type in all cases: cell-based
[1] = test system: primary human mesenchymal stem cells (hMSCs); assay: Induction of chondrogenesis in primary human mesenchymal stem cells (chondrogenic nodules, Rhodamine B / Nile Red); details: 6 days; for EC50: concentration required to induce 50% levels of chondrogenesis vs TGF-β3, read-out: Conc (nM) of 50% TGF-β3 activity; for Emax: relative to TGF-β3 (10 ng/mL) positive control, read-out: Max. Activity as % TGF-β3 activity
Outline: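 Primary hMSCs at passage 3–6 were fixed with 4% formaldehyde and stained with 2 μg/mL Rhodamine B plus 20 μM Nile Red to image chondrogenic nodules. Nodule counts normalized to the mean of 3 DMSO wells (fold change), averaged over 3 replicate wells per concentration. TGF-β3 served as positive control; EC50, maximum activity and the dose giving maximum are reported.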

[2] = test system: Wnt activity (Sp5-Luc reporter, TCF/LEF binding sites) in SW480 colon carcinoma cells; assay: Wnt activity screening assay: Sp5-Luc reporter gene assay in SW480 cells; details: Homo sapiens; for EC50: Sp5-Luc reporter, SW480 cells, overnight incubation; for inhibition at 10 µM: SW480, read-out: percent inhibition at 10 μM
Outline: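 SW480 cells stably carrying a luciferase reporter under a human Sp5 promoter with eight TCF/LEF sites, plated at 4,000 cells/well in 1% FBS medium. Luminescence read with BrightGlo, normalized to DMSO-treated cells; EC50 from four-parameter variable-slope nonlinear regression.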

IL-6 in THP-1 cells = assay: IL-6 inhibition in LPS-stimulated THP-1 human monocyte cells (HTRF); details: for EC50: IL-6 inhibition, LPS-stimulated THP-1 cells, HTRF, 10-point dose-response starting from 10 μM; for inhibition at 10 µM: THP-1, read-out: percentage in parentheses beside EC50 >10
Outline: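 THP-1 cells were serum-reduced (1% FBS, 24 h), plated at 5000 cells/well with compound for 2 h at 37 °C, then stimulated 22 h with 500 ng/mL LPS. Secreted IL-6 was quantified by HTRF (665/620 nm ratio). Signals were normalised to DMSO, and EC50 was fitted by four-parameter nonlinear regression.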

[3] = test system: LL29 cells (primary human fibroblasts derived from IPF patients), α-smooth muscle actin; assay: Inhibition of the fibrotic process: αSMA staining in TGF-β1 treated primary human fibroblasts from IPF patients (LL29 cells); details: Fibroblast; for EC50: 96 h, LL29 cells, TGF-β1 20 ng/mL, 4 days, % αSMA positive cells; for inhibition at 10 µM: read-out: percent inhibition at 10 μM
Outline: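 Read-out after 4-day incubation: αSMA staining with 1 μM SYTOX green nuclear counterstain (30 min, room temperature). Cells were LL29 primary fibroblasts from IPF patients, in 1% FBS F12, exposed to TGF-β1 with test compound, referenced to TGF-β1/DMSO control wells.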

SW480 colon cancer cells = assay: Cell viability assay (CellTiter-Blue) in SW480 colon cancer cells; details: Homo sapiens; for EC50: 96 h, SW480 cell viability, four days, CellTiter-Blue; for inhibition at 10 µM: SW480, read-out: percent inhibition at 10 μM
Outline: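 Fluorescence from resazurin reduced to resorufin by metabolically active cells was the read-out, taken after ~3 h with CellTiter-Blue.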

| EC50 [1] [nM] | EC50 [2] [µM] | EC50 (IL-6 in THP-1 cells) [µM] | EC50 (SW480 colon cancer cells) [µM] | Compound | Emax [1] [%] | inhibition at 10 µM (IL-6 in THP-1 cells) [%] | EC50 [3] [µM] | inhibition at 10 µM [2] [%] | inhibition at 10 µM [3] [%] | inhibition at 10 µM (SW480 colon cancer cells) [%] |
| --- | --- | --- | --- | --- | --- | --- | --- | --- | --- | --- |
| 30 | > 10 | > 10 | > 10 | O=C(Nc1cncc(-c2cnc3[nH]nc(-c4cc5cnccc5[nH]4)c3c2)c1)c1ccccc1 [Compound 263, N-(5-(3-(1H-Pyrrolo[3,2-c]pyridin-2-yl)-1H-pyrazolo[3,4-b]pyridin-5-yl)pyridin-3-yl)benzamide] | 70 | 30 | > 10 | 65.5 | 0 | 24.6 |
| – | 1.4 | 0.447 | 1.52 | O=C(Nc1cncc(-c2cnc3[nH]nc(-c4cc5cnccc5[nH]4)c3c2)c1)C1CCCCC1 [Compound 275, N-(5-(3-(1H-Pyrrolo[3,2-c]pyridin-2-yl)-1H-pyrazolo[3,4-b]pyridin-5-yl)pyridin-3-yl)cyclohexanecarboxamide] | 9 | – | 1.38 | – | – | – |
| 900 | 0.662 | 0.307 | 1.5 | Cc1ccncc1-c1cnc2[nH]nc(-c3cc4c(-c5cc(F)cc(CNS(C)(=O)=O)c5)nccc4[nH]3)c2c1 [Compound 481, N-(3-Fluoro-5-(2-(5-(4-methylpyridin-3-yl)-1H-pyrazolo[3,4-b]pyridin-3-yl)-1H-pyrrolo[3,2-c]pyridin-4-yl)benzyl)methanesulfonamide] | 173 | – | 0.6 | – | – | – |
| 300 | 3.64 | 0.124 | > 10 | CS(=O)(=O)NCc1cc(F)cc(-c2nccc3[nH]c(-c4n[nH]c5ncc(-c6cncc(NC(=O)C7CCC7)c6)cc45)cc23)c1 [Compound 497, N-(5-(3-(4-(3-Fluoro-5-(methylsulfonamidomethyl)phenyl)-1H-pyrrolo[3,2-c]pyridin-2-yl)-1H-pyrazolo[3,4-b]pyridin-5-yl)pyridin-3-yl)cyclobutanecarboxamide] | 52 | – | > 10 | – | 0 | 48 |
| – | 0.056 | 0.101 | 0.261 | Fc1ccccc1-c1nccc2[nH]c(-c3n[nH]c4ncc(-c5cn[nH]c5)cc34)cc12 [Compound 539, 3-(4-(2-Fluorophenyl)-1H-pyrrolo[3,2-c]pyridin-2-yl)-5-(1H-pyrazol-4-yl)-1H-pyrazolo[3,4-b]pyridine] | 49 | – | 0.076 | – | – | – |
| – | 6.86 | > 10 | > 10 | CS(=O)(=O)NCc1cc(F)cc(-c2nccc3[nH]c(-c4n[nH]c5ncc(-c6cncc(OCc7ccccc7)c6)cc45)cc23)c1 [Compound 774, N-(3-(2-(5-(5-(Benzyloxy)pyridin-3-yl)-1H-pyrazolo[3,4-b]pyridin-3-yl)-1H-pyrrolo[3,2-c]pyridin-4-yl)-5-fluorobenzyl)methanesulfonamide] | 21 | 48.3 | 2.16 | – | – | 30.2 |

The next lines start with the compound.

| Compound | EC50 [1] [nM] | EC50 [2] [µM] | EC50 (IL-6 in THP-1 cells) [µM] | EC50 (SW480 colon cancer cells) [µM] | Emax [1] [%] | inhibition at 10 µM (IL-6 in THP-1 cells) [%] | EC50 [3] [µM] | inhibition at 10 µM [2] [%] | inhibition at 10 µM [3] [%] | inhibition at 10 µM (SW480 colon cancer cells) [%] |
| --- | --- | --- | --- | --- | --- | --- | --- | --- | --- | --- |
| CN(C)c1cncc(-c2cnc3[nH]nc(-c4cc5cnccc5[nH]4)c3c2)c1 [Compound 259, 5-(3-(1H-Pyrrolo[3,2-c]pyridin-2-yl)-1H-pyrazolo[3,4-b]pyridin-5-yl)-N,N-dimethylpyridin-3-amine] | 10 | 3.76 | > 10 | 1.63 | 80 | 20.1 | 1.43 | – | – | – |
| c1cc2[nH]c(-c3n[nH]c4ncc(-c5cncc(CN6CCCCC6)c5)cc34)cc2cn1 [Compound 267, 5-(5-(Piperidin-1-ylmethyl)pyridin-3-yl)-3-(1H-pyrrolo[3,2-c]pyridin-2-yl)-1H-pyrazolo[3,4-b]pyridine] | – | 1.54 | 1.55 | 1.24 | 40 | – | 1.85 | – | – | – |
| CC(C)(C)CC(=O)Nc1cncc(-c2cnc3[nH]nc(-c4cc5cnccc5[nH]4)c3c2)c1 [Compound 268, N-(5-(3-(1H-Pyrrolo[3,2-c]pyridin-2-yl)-1H-pyrazolo[3,4-b]pyridin-5-yl)pyridin-3-yl)-3,3-dimethylbutanamide] | – | 0.605 | 0.683 | 1.1 | 7 | – | 3.35 | – | – | – |
| CCCC(=O)Nc1cncc(-c2cnc3[nH]nc(-c4cc5cnccc5[nH]4)c3c2)c1 [Compound 269, N-(5-(3-(1H-Pyrrolo[3,2-c]pyridin-2-yl)-1H-pyrazolo[3,4-b]pyridin-5-yl)pyridin-3-yl)butyramide] | – | 0.867 | 1.02 | 3.35 | 100 | – | 2.26 | – | – | – |
| CCCCC(=O)Nc1cncc(-c2cnc3[nH]nc(-c4cc5cnccc5[nH]4)c3c2)c1 [Compound 271, N-(5-(3-(1H-Pyrrolo[3,2-c]pyridin-2-yl)-1H-pyrazolo[3,4-b]pyridin-5-yl)pyridin-3-yl)pentanamide] | – | 1.47 | 2.86 | 4.03 | 31 | – | 4.1 | – | – | – |
| O=C(Nc1cncc(-c2cnc3[nH]nc(-c4cc5c(-c6cccs6)nccc5[nH]4)c3c2)c1)C1CCC1 [Compound 357, N-(5-(3-(4-(Thiophen-2-yl)-1H-pyrrolo[3,2-c]pyridin-2-yl)-1H-pyrazolo[3,4-b]pyridin-5-yl)pyridin-3-yl)cyclobutanecarboxamide] | 100 | 0.473 | 0.179 | 0.489 | 82 | – | 0.609 | – | – | – |
| CC(C)CC(=O)Nc1cncc(-c2cnc3[nH]nc(-c4cc5c(-c6cc(F)cc(CNS(C)(=O)=O)c6)nccc5[nH]4)c3c2)c1 [Compound 478, N-(5-(3-(4-(3-Fluoro-5-(methylsulfonamidomethyl)phenyl)-1H-pyrrolo[3,2-c]pyridin-2-yl)-1H-pyrazolo[3,4-b]pyridin-5-yl)pyridin-3-yl)-3-methylbutanamide] | 300 | 1.96 | 0.537 | 4.09 | 52 | – | > 10 | – | 0 | – |
| CCNCc1cncc(-c2cnc3[nH]nc(-c4cc5c(-c6cc(F)cc(CNS(C)(=O)=O)c6)nccc5[nH]4)c3c2)c1 [Compound 482, N-(3-(2-(5-(5-((Ethylamino)methyl)pyridin-3-yl)-1H-pyrazolo[3,4-b]pyridin-3-yl)-1H-pyrrolo[3,2-c]pyridin-4-yl)-5-fluorobenzyl)methanesulfonamide] | 300 | > 10 | 2.24 | > 10 | 61 | – | > 10 | 8.8 | 0 | 16.6 |
| CC(C)Nc1cncc(-c2cnc3[nH]nc(-c4cc5c(-c6cc(F)cc(CNS(C)(=O)=O)c6)nccc5[nH]4)c3c2)c1 [Compound 488, N-(3-Fluoro-5-(2-(5-(5-(isopropylamino)pyridin-3-yl)-1H-pyrazolo[3,4-b]pyridin-3-yl)-1H-pyrrolo[3,2-c]pyridin-4-yl)benzyl)methanesulfonamide] | 100 | 0.486 | > 10 | 1.34 | 66 | 54.6 | 0.86 | – | – | – |
| CS(=O)(=O)NCc1cc(F)cc(-c2nccc3[nH]c(-c4n[nH]c5ncc(-c6cncc(NC(=O)C7CCCCC7)c6)cc45)cc23)c1 [Compound 499, N-(5-(3-(4-(3-Fluoro-5-(methylsulfonamidomethyl)phenyl)-1H-pyrrolo[3,2-c]pyridin-2-yl)-1H-pyrazolo[3,4-b]pyridin-5-yl)pyridin-3-yl)cyclohexane carboxamide] | – | 3.63 | 3.75 | > 10 | 120 | – | > 10 | – | 23.6 | 35.5 |
| Cn1cc(-c2cnc3[nH]nc(-c4cc5c(-c6cccnc6)nccc5[nH]4)c3c2)cn1 [Compound 556, 5-(1-Methyl-1H-pyrazol-4-yl)-3-(4-(pyridin-3-yl)-1H-pyrrolo[3,2-c]pyridin-2-yl)-1H-pyrazolo[3,4-b]pyridine] | – | 0.318 | 0.355 | 0.975 | 33 | – | 0.098 | – | – | – |
